Laboratory results: patent publication US12365696B2, “Small-molecule focal adhesion kinase (FAK) inhibitors” (DANA-FARBER CANCER INSTITUTE, INC., priority 2019, dated 2025)
Where two headings read alike, the source gives them in different places.

How the values were obtained:
Assay in all cases: KINOMEscan
Format in all cases: binding
[1] = target: ABL1(F317L)-nonphosphorylated (Homo sapiens (Human), UniProt P00519, F317L); conditions: 10000 nM, read-out: Percent Control
EPHB6 = EPHB6 (Homo sapiens (Human), UniProt O15197); conditions: EPHB6, 10000 nM; read-out: Percent Control
WNK2 = WNK2 (Homo sapiens (Human), UniProt Q9Y3S1); conditions: WNK2, 10000 nM; read-out: Percent Control
RDGFRB = RDGFRB (Homo sapiens (Human), UniProt P09619); conditions: 10000 nM, read-out: Percent Control
RDGFRB, sequence (P09619 33-1106): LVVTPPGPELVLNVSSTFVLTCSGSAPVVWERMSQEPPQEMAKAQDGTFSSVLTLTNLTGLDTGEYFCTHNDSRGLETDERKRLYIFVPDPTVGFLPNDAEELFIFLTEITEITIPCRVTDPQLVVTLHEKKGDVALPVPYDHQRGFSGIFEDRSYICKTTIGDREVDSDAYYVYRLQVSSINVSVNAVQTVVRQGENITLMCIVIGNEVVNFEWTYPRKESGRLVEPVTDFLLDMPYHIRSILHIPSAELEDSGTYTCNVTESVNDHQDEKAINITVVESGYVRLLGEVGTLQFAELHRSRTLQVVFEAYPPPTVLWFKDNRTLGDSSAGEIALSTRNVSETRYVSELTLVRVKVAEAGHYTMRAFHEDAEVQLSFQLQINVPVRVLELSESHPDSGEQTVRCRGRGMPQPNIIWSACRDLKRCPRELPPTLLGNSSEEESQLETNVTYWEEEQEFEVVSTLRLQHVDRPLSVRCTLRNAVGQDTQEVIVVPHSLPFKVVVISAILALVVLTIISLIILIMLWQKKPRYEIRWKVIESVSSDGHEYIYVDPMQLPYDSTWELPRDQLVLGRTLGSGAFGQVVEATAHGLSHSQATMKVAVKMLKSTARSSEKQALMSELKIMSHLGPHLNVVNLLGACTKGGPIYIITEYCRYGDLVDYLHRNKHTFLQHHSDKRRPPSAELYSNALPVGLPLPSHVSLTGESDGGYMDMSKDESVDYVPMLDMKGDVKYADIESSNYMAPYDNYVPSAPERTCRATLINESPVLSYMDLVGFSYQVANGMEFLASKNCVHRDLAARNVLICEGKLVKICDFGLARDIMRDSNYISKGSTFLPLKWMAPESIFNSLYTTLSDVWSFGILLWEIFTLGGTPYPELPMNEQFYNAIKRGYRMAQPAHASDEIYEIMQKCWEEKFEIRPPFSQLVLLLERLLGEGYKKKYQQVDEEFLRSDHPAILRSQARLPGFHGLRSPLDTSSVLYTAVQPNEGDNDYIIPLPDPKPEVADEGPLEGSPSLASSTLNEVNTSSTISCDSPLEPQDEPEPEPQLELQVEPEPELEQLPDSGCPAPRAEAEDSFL

MLCK = MLCK (Homo sapiens (Human), UniProt Q32MK0); conditions: 10000 nM, read-out: Percent Control
STK33 = STK33 (Homo sapiens (Human), UniProt Q9BYT3); conditions: STK33, 10000 nM; read-out: Percent Control
CAMK2A = CAMK2A (Homo sapiens (Human), UniProt Q9UQM7); conditions: 10000 nM, read-out: Percent Control
MERTK = MERTK (Homo sapiens (Human), UniProt Q12866); conditions: 10000 nM, read-out: Percent Control
[2] = target: RSK3(Kin.Dom.2-C-terminal) (Homo sapiens (Human), UniProt Q15349); conditions: 10000 nM, read-out: Percent Control
IKK-beta = IKK-beta (Homo sapiens (Human), UniProt O14920); conditions: 10000 nM, read-out: Percent Control
SRPK1 = SRPK1 (Homo sapiens (Human), UniProt Q96SB4); conditions: SRPK1, 10000 nM; read-out: Percent Control
YSK1 = YSK1 (Homo sapiens (Human), UniProt O00506); conditions: YSK1, 10000 nM; read-out: Percent Control
TNK2 = TNK2 (Homo sapiens (Human), UniProt Q07912); conditions: TNK2, 10000 nM; read-out: Percent Control
p38-beta = p38-beta (Homo sapiens (Human), UniProt Q15759); conditions: 10000 nM, read-out: Percent Control
LKB1 = LKB1 (Homo sapiens (Human), UniProt Q15831); conditions: LKB1, 10000 nM; read-out: Percent Control
PIP5K2C = PIP5K2C (Homo sapiens (Human), UniProt Q8TBX8); conditions: 10000 nM, read-out: Percent Control
PIP5K2C, sequence (Q8TBX8 whole entry): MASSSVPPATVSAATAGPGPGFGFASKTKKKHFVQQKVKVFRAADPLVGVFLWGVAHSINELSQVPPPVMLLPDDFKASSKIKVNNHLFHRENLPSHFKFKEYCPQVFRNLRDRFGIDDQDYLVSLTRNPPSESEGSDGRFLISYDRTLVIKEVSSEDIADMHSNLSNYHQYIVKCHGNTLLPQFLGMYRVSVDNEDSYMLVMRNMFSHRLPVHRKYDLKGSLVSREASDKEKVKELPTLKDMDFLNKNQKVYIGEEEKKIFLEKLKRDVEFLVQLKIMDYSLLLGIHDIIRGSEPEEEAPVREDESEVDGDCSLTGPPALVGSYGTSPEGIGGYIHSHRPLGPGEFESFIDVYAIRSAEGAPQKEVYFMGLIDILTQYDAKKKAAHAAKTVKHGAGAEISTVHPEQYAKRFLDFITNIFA

TRKA = TRKA (Homo sapiens (Human), UniProt P04629); conditions: 10000 nM, read-out: Percent Control
[3] = target: TYK2(JH2domain-pseudokinase) (Homo sapiens (Human), UniProt P29597); conditions: 10000 nM, read-out: Percent Control
MKNK2 = MKNK2 (Homo sapiens (Human), UniProt Q9HBH9); conditions: MKNK2, 10000 nM; read-out: Percent Control
WNK3 = WNK3 (Homo sapiens (Human), UniProt Q9BYP7); conditions: WNK3, 10000 nM; read-out: Percent Control
WNK3, sequence (Q9BYP7 whole entry): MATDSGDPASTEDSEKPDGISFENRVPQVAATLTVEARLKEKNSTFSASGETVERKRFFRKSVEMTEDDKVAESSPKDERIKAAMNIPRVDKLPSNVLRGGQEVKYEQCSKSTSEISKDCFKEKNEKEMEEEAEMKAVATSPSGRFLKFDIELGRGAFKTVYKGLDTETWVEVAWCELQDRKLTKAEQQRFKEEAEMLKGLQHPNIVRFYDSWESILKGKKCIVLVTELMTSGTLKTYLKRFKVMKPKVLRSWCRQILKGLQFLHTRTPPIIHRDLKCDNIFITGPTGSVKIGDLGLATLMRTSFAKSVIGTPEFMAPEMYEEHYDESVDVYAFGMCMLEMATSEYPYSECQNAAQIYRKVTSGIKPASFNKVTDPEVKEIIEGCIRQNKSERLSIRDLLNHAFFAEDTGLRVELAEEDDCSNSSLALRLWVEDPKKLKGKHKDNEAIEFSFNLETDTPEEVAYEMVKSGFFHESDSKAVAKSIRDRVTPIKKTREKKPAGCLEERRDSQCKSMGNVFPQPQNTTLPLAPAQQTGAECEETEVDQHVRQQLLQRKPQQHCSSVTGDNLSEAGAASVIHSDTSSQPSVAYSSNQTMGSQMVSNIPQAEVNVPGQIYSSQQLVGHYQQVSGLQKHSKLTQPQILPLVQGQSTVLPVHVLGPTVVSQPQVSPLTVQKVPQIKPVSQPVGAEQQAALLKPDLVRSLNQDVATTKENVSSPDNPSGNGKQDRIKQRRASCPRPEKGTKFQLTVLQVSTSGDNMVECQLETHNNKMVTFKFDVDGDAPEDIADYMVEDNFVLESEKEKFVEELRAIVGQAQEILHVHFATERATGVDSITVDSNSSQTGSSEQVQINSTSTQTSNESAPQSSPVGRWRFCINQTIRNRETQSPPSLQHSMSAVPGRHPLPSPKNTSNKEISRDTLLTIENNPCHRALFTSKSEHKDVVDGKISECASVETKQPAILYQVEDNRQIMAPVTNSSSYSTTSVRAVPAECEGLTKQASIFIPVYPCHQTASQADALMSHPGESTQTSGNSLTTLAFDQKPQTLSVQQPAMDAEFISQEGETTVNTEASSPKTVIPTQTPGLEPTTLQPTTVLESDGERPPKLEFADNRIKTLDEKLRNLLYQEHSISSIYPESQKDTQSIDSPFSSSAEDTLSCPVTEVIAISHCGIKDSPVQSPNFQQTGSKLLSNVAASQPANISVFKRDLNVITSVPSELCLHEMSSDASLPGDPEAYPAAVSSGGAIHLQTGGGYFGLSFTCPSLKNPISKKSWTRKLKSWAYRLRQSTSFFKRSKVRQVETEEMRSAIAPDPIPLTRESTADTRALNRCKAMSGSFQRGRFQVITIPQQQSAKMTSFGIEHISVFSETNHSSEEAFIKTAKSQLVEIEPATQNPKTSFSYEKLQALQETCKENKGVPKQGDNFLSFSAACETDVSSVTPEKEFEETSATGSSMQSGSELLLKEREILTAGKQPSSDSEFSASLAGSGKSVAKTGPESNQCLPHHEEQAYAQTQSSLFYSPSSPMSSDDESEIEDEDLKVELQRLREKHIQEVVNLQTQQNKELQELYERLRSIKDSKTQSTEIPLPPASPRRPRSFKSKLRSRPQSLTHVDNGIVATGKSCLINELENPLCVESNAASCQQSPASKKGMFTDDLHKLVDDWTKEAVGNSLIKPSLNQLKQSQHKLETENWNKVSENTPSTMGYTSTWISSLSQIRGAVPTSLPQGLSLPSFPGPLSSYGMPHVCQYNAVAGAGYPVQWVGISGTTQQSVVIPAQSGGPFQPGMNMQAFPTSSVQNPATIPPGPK

MARK4 = MARK4 (Homo sapiens (Human), UniProt Q96L34); conditions: MARK4, 10000 nM; read-out: Percent Control
AKT1 = AKT1 (Homo sapiens (Human), UniProt P31749); conditions: AKT1, 10000 nM; read-out: Percent Control
p38-alpha = p38-alpha (Homo sapiens (Human), UniProt Q16539); conditions: 10000 nM, read-out: Percent Control
MAP3K4 = MAP3K4 (Homo sapiens (Human), UniProt Q9Y6R4); conditions: MAP3K4, 10000 nM; read-out: Percent Control
[4] = target: RPS6KA4(Kin.Dom.1-N-terminal) (Homo sapiens (Human), UniProt O75676); conditions: 10000 nM, read-out: Percent Control
PRKCD = PRKCD (Homo sapiens (Human), UniProt Q05655); conditions: 10000 nM, read-out: Percent Control
PRKCD, sequence (Q05655 whole entry): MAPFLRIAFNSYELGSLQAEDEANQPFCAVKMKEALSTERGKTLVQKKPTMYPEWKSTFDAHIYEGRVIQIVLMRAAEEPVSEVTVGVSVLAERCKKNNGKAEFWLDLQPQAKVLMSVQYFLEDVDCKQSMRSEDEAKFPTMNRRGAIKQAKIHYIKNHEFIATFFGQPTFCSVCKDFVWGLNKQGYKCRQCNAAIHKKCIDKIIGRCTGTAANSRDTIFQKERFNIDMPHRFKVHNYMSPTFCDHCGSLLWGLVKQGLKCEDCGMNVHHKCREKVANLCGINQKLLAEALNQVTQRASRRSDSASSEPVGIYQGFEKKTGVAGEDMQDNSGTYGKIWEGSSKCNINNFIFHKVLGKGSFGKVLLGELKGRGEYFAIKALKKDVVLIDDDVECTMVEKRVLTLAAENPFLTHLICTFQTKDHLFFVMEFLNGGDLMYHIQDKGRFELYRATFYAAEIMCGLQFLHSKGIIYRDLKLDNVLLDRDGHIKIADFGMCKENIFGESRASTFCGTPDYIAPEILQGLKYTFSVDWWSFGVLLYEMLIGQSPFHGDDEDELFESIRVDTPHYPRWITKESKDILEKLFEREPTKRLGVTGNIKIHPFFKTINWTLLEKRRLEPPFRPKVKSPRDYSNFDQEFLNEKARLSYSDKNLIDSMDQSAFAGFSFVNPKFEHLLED

MEK3 = MEK3 (Homo sapiens (Human), UniProt P46734); conditions: MEK3, 10000 nM; read-out: Percent Control
WNK1 = WNK1 (Homo sapiens (Human), UniProt Q9H4A3); conditions: WNK1, 10000 nM; read-out: Percent Control
PIP5K1A = PIP5K1A (Homo sapiens (Human), UniProt Q99755); conditions: 10000 nM, read-out: Percent Control
PIP5K1A, sequence (Q99755 whole entry): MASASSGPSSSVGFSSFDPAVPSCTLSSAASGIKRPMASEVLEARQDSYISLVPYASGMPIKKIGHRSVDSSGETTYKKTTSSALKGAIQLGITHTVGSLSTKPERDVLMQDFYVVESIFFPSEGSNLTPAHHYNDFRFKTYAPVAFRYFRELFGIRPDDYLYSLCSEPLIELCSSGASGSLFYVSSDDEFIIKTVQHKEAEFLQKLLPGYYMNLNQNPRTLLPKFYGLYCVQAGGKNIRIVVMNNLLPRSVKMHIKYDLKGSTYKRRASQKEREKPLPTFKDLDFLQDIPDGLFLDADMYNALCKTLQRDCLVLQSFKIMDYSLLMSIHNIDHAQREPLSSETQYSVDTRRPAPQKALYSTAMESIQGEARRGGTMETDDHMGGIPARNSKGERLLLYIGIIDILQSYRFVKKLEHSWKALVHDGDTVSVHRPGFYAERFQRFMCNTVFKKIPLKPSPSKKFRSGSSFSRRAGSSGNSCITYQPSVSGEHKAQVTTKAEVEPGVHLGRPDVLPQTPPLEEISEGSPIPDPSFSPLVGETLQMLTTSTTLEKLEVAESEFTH

MAK = MAK (Homo sapiens (Human), UniProt P20794); conditions: 10000 nM, read-out: Percent Control
S6K1 = S6K1 (Homo sapiens (Human), UniProt P23443); conditions: S6K1, 10000 nM; read-out: Percent Control
p38-delta = p38-delta (Homo sapiens (Human), UniProt O15264); conditions: 10000 nM, read-out: Percent Control
DLK = DLK (Homo sapiens (Human), UniProt Q12852); conditions: 10000 nM, read-out: Percent Control
PIK3CA(Q546K) = PIK3CA(Q546K) (Homo sapiens (Human), UniProt P42336, Q546K); conditions: 10000 nM, read-out: Percent Control
GRK1 = GRK1 (Homo sapiens (Human), UniProt Q15835); conditions: GRK1, 10000 nM; read-out: Percent Control
GRK1, sequence (Q15835 whole entry): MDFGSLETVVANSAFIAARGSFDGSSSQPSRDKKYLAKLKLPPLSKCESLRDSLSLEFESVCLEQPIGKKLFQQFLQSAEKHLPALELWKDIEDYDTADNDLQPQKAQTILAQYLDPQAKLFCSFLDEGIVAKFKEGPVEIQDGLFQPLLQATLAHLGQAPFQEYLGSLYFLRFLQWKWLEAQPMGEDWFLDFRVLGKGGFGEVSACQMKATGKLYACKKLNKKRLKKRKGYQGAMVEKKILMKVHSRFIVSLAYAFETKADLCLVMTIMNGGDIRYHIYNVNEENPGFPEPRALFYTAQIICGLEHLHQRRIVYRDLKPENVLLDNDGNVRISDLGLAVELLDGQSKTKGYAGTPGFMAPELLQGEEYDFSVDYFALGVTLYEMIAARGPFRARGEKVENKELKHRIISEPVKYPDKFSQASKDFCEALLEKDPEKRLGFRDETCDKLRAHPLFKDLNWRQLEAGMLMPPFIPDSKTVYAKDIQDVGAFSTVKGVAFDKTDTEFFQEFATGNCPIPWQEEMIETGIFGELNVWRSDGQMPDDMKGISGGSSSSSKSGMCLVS

Row | Compound | remaining binding at 10 µM [1] [%] | remaining binding at 10 µM (EPHB6) [%] | remaining binding at 10 µM (WNK2) [%] | remaining binding at 10 µM (MLCK) [%] | remaining binding at 10 µM (STK33) [%] | remaining binding at 10 µM (CAMK2A) [%] | remaining binding at 10 µM (MERTK) [%] | remaining binding at 10 µM [2] [%] | remaining binding at 10 µM (IKK-beta) [%] | remaining binding at 10 µM (SRPK1) [%] | remaining binding at 10 µM (YSK1) [%] | remaining binding at 10 µM (TNK2) [%] | remaining binding at 10 µM (p38-beta) [%] | remaining binding at 10 µM (LKB1) [%] | remaining binding at 10 µM (PIP5K2C) [%] | remaining binding at 10 µM (TRKA) [%] | remaining binding at 10 µM [3] [%] | remaining binding at 10 µM (MKNK2) [%] | remaining binding at 10 µM (WNK3) [%] | remaining binding at 10 µM (MARK4) [%] | further results
1 | COc1cc(N2CCC(N3CCN(C)CC3)CC2)ccc1Nc1ncc2c(n1)N(C)c1sc(C)nc1C(=O)N2 [Compound 3, 6-((2-methoxy-4-(4-(4-methylpiperazin-1-yl)piperidin-1-yl)phenyl)amino)-2,4-dimethyl-4,9-dihydro-10H-pyrimido[5,4-b]thiazolo[5,4-e][1,4]diazepin-10-one] | 3.9 | 45 | 74 | 94 | 84 | 76 | 93 | 84 | 100 | 100 | 79 | 20 | 55 | 44 | 86 | 100 | 100 | 80 | 100 | 83 | remaining binding at 10 µM (RDGFRB; RDGFRB): 50%; remaining binding at 10 µM (AKT1): 89%; remaining binding at 10 µM (p38-alpha): 75%; remaining binding at 10 µM (MAP3K4): 73%; remaining binding at 10 µM [4]: 100%; remaining binding at 10 µM (PRKCD): 86%; remaining binding at 10 µM (MEK3): 92%; remaining binding at 10 µM (WNK1): 100%; remaining binding at 10 µM (PIP5K1A): 100%; remaining binding at 10 µM (MAK): 71%; remaining binding at 10 µM (S6K1): 100%; remaining binding at 10 µM (p38-delta): 82%; remaining binding at 10 µM (DLK): 90%; remaining binding at 10 µM (PIK3CA(Q546K)): 100%; remaining binding at 10 µM (GRK1): 86%
2 | COc1cc(N2CCC(N3CCN(C)CC3)CC2)ccc1Nc1ncc2c(n1)N(C)c1sc(C)nc1C(=O)N2C [Compound 5, 6-((2-methoxy-4-(4-(4-methylpiperazin-1-yl)piperidin-1-yl)phenyl)amino)-2,4,9-trimethyl-4,9-dihydro-10H-pyrimido[5,4-b]thiazolo[5,4-e][1,4]diazepin-10-one] | 54 | 100 | 100 | 100 | 10 | 100 | 100 | 31 | 96 | 100 | 100 | 87 | 95 | 100 | 75 | 100 | 100 | 90 | 97 | 87 | remaining binding at 10 µM (RDGFRB; PDGFRB): 100%; remaining binding at 10 µM (AKT1): 100%; remaining binding at 10 µM (p38-alpha): 93%; remaining binding at 10 µM (MAP3K4): 100%; remaining binding at 10 µM [4]: 100%; remaining binding at 10 µM (PRKCD): 94%; remaining binding at 10 µM (MEK3): 100%; remaining binding at 10 µM (WNK1): 89%; remaining binding at 10 µM (PIP5K1A): 100%; remaining binding at 10 µM (MAK): 100%; remaining binding at 10 µM (S6K1): 100%; remaining binding at 10 µM (p38-delta): 100%; remaining binding at 10 µM (DLK): 86%; remaining binding at 10 µM (PIK3CA(Q546K)): 94%; remaining binding at 10 µM (GRK1): 81%
